Consider 6 compounds from patent publication US12577245B2, “Sulfonyl benzamide derivatives as Bcl-2 inhibitors” (ASCENTAGE PHARMA (SUZHOU) CO., LTD., priority 2021, dated 2026).

The structures appear in SMILES notation. pIC50: −log10 of the molar value.

For the assay, the target named is Bcl-2 G101V (Homo sapiens, UniProt P10415, G101V). Put plainly: Bcl-2 G101V inhibition, fluorescence polarization (Flu-BIM tracer) binding assay. Particulars: FP; 20 nM Bcl2, 5 nM Flu-BIM, 1 h incubation; read-out: Bcl-2 G101V (FP).
Consider `CC1(C)CCC(CN2CCN(c3ccc(C(=O)NS(=O)(=O)c4ccc(NC[C@H]5CC[C@](C)(O)CC5)c([N+](=O)[O-])c4)c(Oc4cnc5[nH]ccc5c4)c3)CC2)=C(c2cc(-c3cc(C(C)(C)O)ccc3F)cs2)C1` [Example 75, 2-((1H-pyrrolo[2,3-b]pyridin-5-yl)oxy)-4-(4-((2-(4-(2-fluoro-5-(2-hydroxypropan-2-yl)phenyl)thiophen-2-yl)-4,4-dimethylcyclohex-1-en-1-yl)methyl)piperazin-1-yl)-N-((4-((((1r,4r)-4-hydroxy-4-methylcyclohexyl)methyl)amino)-3-nitrophenyl)sulfonyl)benzamide], for which the pIC50 was 7.46.
With `CC1(C)CCC(CN2CCN(c3ccc(C(=O)NS(=O)(=O)c4ccc(NC[C@H]5CC[C@](C)(O)CC5)c([N+](=O)[O-])c4)c(Oc4cnc5[nH]ccc5c4)c3)CC2)=C(c2cc(-c3ccc(C(C)(O)C(F)(F)F)cc3F)cs2)C1` (stereo partly drawn) [Example 78, 2-((1H-pyrrolo[2,3-b]pyridin-5-yl)oxy)-4-(4-((2-(4-(2-fluoro-4-(1,1,1-trifluoro-2-hydroxypropan-2-yl)phenyl)thiophen-2-yl)-4,4-dimethylcyclohex-1-en-1-yl)methyl)piperazin-1-yl)-N-((4-((((1r,4r)-4-hydroxy-4-methylcyclohexyl)methyl)amino)-3-nitrophenyl)sulfonyl)benzamide], the pIC50 is 7.48.
The value for `CC1(C)CCC(CN2CCN(c3ccc(C(=O)NS(=O)(=O)c4ccc(NC[C@H]5CC[C@](C)(O)CC5)c([N+](=O)[O-])c4)c(Oc4cnc5[nH]ccc5c4)c3)CC2)=C(c2cc(-c3ccc4c(c3)CCC4(C)O)cs2)C1` (stereo partly drawn) [Example 79, 2-((1H-pyrrolo[2,3-b]pyridin-5-yl)oxy)-4-(4-((2-(4-(1-hydroxy-1-methyl-2,3-dihydro-1H-inden-5-yl)thiophen-2-yl)-4,4-dimethylcyclohex-1-en-1-yl)methyl)piperazin-1-yl)-N-((4-((((1r,4r)-4-hydroxy-4-methylcyclohexyl)methyl)amino)-3-nitrophenyl)sulfonyl)benzamide] was 7.65; that for `CC(=O)NC(C)(C)c1cc(F)c(-c2csc(C3=C(CN4CCN(c5ccc(C(=O)NS(=O)(=O)c6ccc(NC[C@H]7CC[C@](C)(O)CC7)c([N+](=O)[O-])c6)c(Oc6cnc7[nH]ccc7c6)c5)CC4)CCC(C)(C)C3)c2)c(F)c1` [Example 80, 2-((1H-pyrrolo[2,3-b]pyridin-5-yl)oxy)-4-(4-((2-(4-(4-(2-acetamidopropan-2-yl)-2,6-difluorophenyl)thiophen-2-yl)-4,4-dimethylcyclohex-1-en-1-yl)methyl)piperazin-1-yl)-N-((4-((((1r,4r)-4-hydroxy-4-methylcyclohexyl)methyl)amino)-3-nitrophenyl)sulfonyl)benzamide] was 7.63; that for `Cc1sc(C2=C(CN3CCN(c4ccc(C(=O)NS(=O)(=O)c5ccc(NC[C@H]6CC[C@](C)(O)CC6)c([N+](=O)[O-])c5)c(Oc5cnc6[nH]ccc6c5)c4)CC3)CCC(C)(C)C2)cc1-c1c(F)cc(C(C)(C)O)cc1F` [Example 81, 2-((1H-pyrrolo[2,3-b]pyridin-5-yl)oxy)-4-(4-((2-(4-(2,6-difluoro-4-(2-hydroxypropan-2-yl)phenyl)-5-methylthiophen-2-yl)-4,4-dimethylcyclohex-1-en-1-yl)methyl)piperazin-1-yl)-N-((4-((((1r,4r)-4-hydroxy-4-methylcyclohexyl)methyl)amino)-3-nitrophenyl)sulfonyl)benzamide] was 6.99.
The value for `CC1(C)CCC(CN2CCN(c3ccc(C(=O)NS(=O)(=O)c4ccc(NC[C@H]5CC[C@](C)(O)CC5)c([N+](=O)[O-])c4)c(Oc4cnc5[nH]ccc5c4)c3)CC2)=C(c2cc(-c3c(F)cc(C(C)(C)C(=O)O)cc3F)cs2)C1` [Example 82, 2-(4-(5-(2-((4-(3-((1H-pyrrolo[2,3-b]pyridin-5-yl)oxy)-4-(((4-((((1r,4r)-4-hydroxy-4-methylcyclohexyl)methyl)amino)-3-nitrophenyl)sulfonyl)carbamoyl)phenyl)piperazin-1-yl)methyl)-5,5-dimethylcyclohex-1-en-1-yl)thiophen-3-yl)-3,5-difluorophenyl)-2-methylpropanoic acid] was 7.65.
